Key:
Format in all cases: functional
[1] = tested on: HCT-15; experiment: Growth inhibition of human HCT15 cells by sulforhodamine B assay
[2] = tested on: NCI-H522; experiment: Growth inhibition of human NCI-H522 cells by sulforhodamine B assay
[3] = tested on: NCI-H226; experiment: Growth inhibition of human NCI-H226 cells by sulforhodamine B assay
[4] = tested on: SR; experiment: Growth inhibition of human SR cells by sulforhodamine B assay
[5] = tested on: SK-MEL-28; experiment: Growth inhibition of human SK-MEL-28 cells assessed as cell growth at 10^-8 M by sulforhodamine B assay; conditions: read-out: Activity
[6] = tested on: Malme-3M; experiment: Growth inhibition of human MALME-3M cells assessed as cell growth at 10^-8 M by sulforhodamine B assay; conditions: read-out: Activity
[7] = tested on: U-251; experiment: Growth inhibition of human U251 cells assessed as cell growth at 10^-8 M by sulforhodamine B assay; conditions: read-out: Activity
[8] = tested on: SNB-19; experiment: Growth inhibition of human SNB19 cells assessed as cell growth at 10^-8 M by sulforhodamine B assay; conditions: read-out: Activity
[9] = tested on: SW-620; experiment: Growth inhibition of human SW620 cells assessed as cell growth at 10^-8 M by sulforhodamine B assay; conditions: read-out: Activity
[10] = tested on: SR; experiment: Growth inhibition of human SR cells assessed as cell growth at 10^-8 M by sulforhodamine B assay; conditions: read-out: Activity
[11] = tested on: T47D; experiment: Growth inhibition of human T47D cells by sulforhodamine B assay
[12] = tested on: SK-MEL-28; experiment: Growth inhibition of human SK-MEL-28 cells by sulforhodamine B assay
[13] = tested on: MDA-MB-435; experiment: Growth inhibition of human MDA-MB-435 cells by sulforhodamine B assay
[14] = tested on: TK-10; experiment: Growth inhibition of human TK10 cells assessed as cell growth at 10^-4 M by sulforhodamine B assay; conditions: read-out: Activity
[15] = tested on: SN12C; experiment: Growth inhibition of human SN12C cells assessed as cell growth at 10^-4 M by sulforhodamine B assay; conditions: read-out: Activity
[16] = tested on: OVCAR-3; experiment: Growth inhibition of human OVCAR3 cells assessed as cell growth at 10^-4 M by sulforhodamine B assay; conditions: read-out: Activity
[17] = tested on: SK-MEL-5; experiment: Growth inhibition of human SK-MEL-5 cells assessed as cell growth at 10^-4 M by sulforhodamine B assay; conditions: read-out: Activity
[18] = tested on: SK-MEL-28; experiment: Growth inhibition of human SK-MEL-28 cells assessed as cell growth at 10^-4 M by sulforhodamine B assay; conditions: read-out: Activity
[19] = tested on: U-251; experiment: Growth inhibition of human U251 cells assessed as cell growth at 10^-4 M by sulforhodamine B assay; conditions: read-out: Activity
[20] = tested on: HT-29; experiment: Growth inhibition of human HT-29 cells assessed as cell growth at 10^-4 M by sulforhodamine B assay; conditions: read-out: Activity
[21] = tested on: RPMI-8226; experiment: Growth inhibition of human RPMI8226 cells assessed as cell growth at 10^-4 M by sulforhodamine B assay; conditions: read-out: Activity
[22] = tested on: HL-60(TB); experiment: Growth inhibition of human HL-60(TB) cells assessed as cell growth at 10^-4 M by sulforhodamine B assay; conditions: read-out: Activity
[23] = tested on: BT-549; experiment: Growth inhibition of human BT549 cells assessed as cell growth at 10^-6 M by sulforhodamine B assay; conditions: read-out: Activity
[24] = tested on: SN12C; experiment: Growth inhibition of human SN12C cells assessed as cell growth at 10^-6 M by sulforhodamine B assay; conditions: read-out: Activity
[25] = tested on: HCT-15; experiment: Growth inhibition of human HCT15 cells assessed as cell growth at 10^-6 M by sulforhodamine B assay; conditions: read-out: Activity
[26] = tested on: HCT-116; experiment: Growth inhibition of human HCT116 cells assessed as cell growth at 10^-6 M by sulforhodamine B assay; conditions: read-out: Activity
[27] = Growth inhibition of human HCC2998 cells assessed as cell growth at 10^-6 M by sulforhodamine B assay; conditions: HCC 2998, read-out: Activity
[28] = tested on: NCI-H522; experiment: Growth inhibition of human NCI-H522 cells assessed as cell growth at 10^-6 M by sulforhodamine B assay; conditions: read-out: Activity
[29] = tested on: MOLT-4; experiment: Growth inhibition of human MOLT4 cells assessed as cell growth at 10^-6 M by sulforhodamine B assay; conditions: read-out: Activity
[30] = tested on: SK-OV-3; experiment: Growth inhibition of human SKOV3 cells assessed as cell growth at 10^-7 M by sulforhodamine B assay; conditions: read-out: Activity
[31] = tested on: OVCAR-4; experiment: Growth inhibition of human OVCAR4 cells assessed as cell growth at 10^-7 M by sulforhodamine B assay; conditions: read-out: Activity
[32] = tested on: SF-295; experiment: Growth inhibition of human SF295 cells assessed as cell growth at 10^-7 M by sulforhodamine B assay; conditions: read-out: Activity
[33] = tested on: HT-29; experiment: Growth inhibition of human HT-29 cells assessed as cell growth at 10^-7 M by sulforhodamine B assay; conditions: read-out: Activity
[34] = tested on: HOP-92; experiment: Growth inhibition of human HOP92 cells assessed as cell growth at 10^-7 M by sulforhodamine B assay; conditions: read-out: Activity
[35] = tested on: MDA-MB-468; experiment: Growth inhibition of human MDA-MB-468 cells assessed as cell growth at 10^-8 M by sulforhodamine B assay; conditions: read-out: Activity
[36] = tested on: BT-549; experiment: Growth inhibition of human BT549 cells assessed as cell growth at 10^-8 M by sulforhodamine B assay; conditions: read-out: Activity
[37] = Growth inhibition of human Hs 578T cells assessed as cell growth at 10^-8 M by sulforhodamine B assay; conditions: read-out: Activity
[38] = tested on: MCF7; experiment: Growth inhibition of human MCF7 cells assessed as cell growth at 10^-8 M by sulforhodamine B assay; conditions: read-out: Activity
[39] = tested on: RXF 393; experiment: Growth inhibition of human RXF393 cells assessed as cell growth at 10^-8 M by sulforhodamine B assay; conditions: read-out: Activity
[40] = tested on: OVCAR-8; experiment: Growth inhibition of human OVCAR8 cells assessed as cell growth at 10^-8 M by sulforhodamine B assay; conditions: read-out: Activity
[41] = tested on: OVCAR-5; experiment: Growth inhibition of human OVCAR5 cells assessed as cell growth at 10^-8 M by sulforhodamine B assay; conditions: read-out: Activity
[42] = read-out: LC50 (the source's name)
[43] = read-out: pLC50 (the source's name) (converted)

CC(C)=CC(=O)O[C@@H]1CC(C)(C)C[C@H]2C3=CC[C@@H]4[C@@]5(C)CC[C@H](O)C(C)(C)[C@@H]5CC[C@@]4(C)[C@]3(C)CC[C@@]12C(=O)O [Reduced Lantadene B]
GI50 ([1]; read-out: GI50): 1.56 µM | LC50 (50% lethal concentration) ([1]; read-out: LC50): > 100 µM | TGI ([1]; read-out: TGI): 19.2 µM | GI50 ([1]; read-out: pGI50 (converted)): 1.55 µM | LC50 (50% lethal concentration) ([1]; read-out: pLC50 (converted)): > 100 µM | TGI ([1]; read-out: pTGI (converted)): 19.1 µM | GI50 ([2]; read-out: GI50): 4.22 µM | CC50 [2, 42]: 71.3 µM | TGI ([2]; read-out: TGI): 21.8 µM | GI50 ([2]; read-out: pGI50 (converted)): 4.17 µM | CC50 [2, 43]: 70.8 µM | TGI ([2]; read-out: pTGI (converted)): 21.9 µM | GI50 ([3]; read-out: GI50): 5.09 µM | LC50 ([3]; read-out: LC50): 86 µM | TGI ([3]; read-out: TGI): 24.2 µM | GI50 ([3]; read-out: pGI50 (converted)): 5.13 µM | LC50 ([3]; read-out: pLC50 (converted)): 85.1 µM | TGI ([3]; read-out: pTGI (converted)): 24 µM | GI50 ([4]; read-out: GI50): 5.04 µM | CC50 [4, 42]: > 100 µM | TGI ([4]; read-out: TGI): 35.4 µM | GI50 ([4]; read-out: pGI50 (converted)): 5.01 µM | CC50 [4, 43]: > 100 µM | TGI ([4]; read-out: pTGI (converted)): 35.5 µM | growth at 0.01 µM [5]: 100% | growth at 0.01 µM [6]: 94% | growth at 0.01 µM [7]: 96% | growth at 0.01 µM [8]: 93% | growth at 0.01 µM [9]: 102% | growth at 0.01 µM [10]: 107% | GI50 ([11]; read-out: GI50): 16.7 µM | CC50 [11, 42]: > 100 µM | TGI ([11]; read-out: TGI): 63.4 µM | GI50 ([11]; read-out: pGI50 (converted)): 16.6 µM | CC50 [11, 43]: > 100 µM | TGI ([11]; read-out: pTGI (converted)): 63.1 µM | GI50 ([12]; read-out: GI50): 4.89 µM | CC50 [12, 42]: 70.1 µM | TGI ([12]; read-out: TGI): 20.4 µM | GI50 ([12]; read-out: pGI50 (converted)): 4.9 µM | CC50 [12, 43]: 70.8 µM | TGI ([12]; read-out: pTGI (converted)): 20.4 µM | GI50 ([13]; read-out: GI50): 11.9 µM | CC50 [13, 42]: > 100 µM | TGI ([13]; read-out: TGI): 48.4 µM | GI50 ([13]; read-out: pGI50 (converted)): 12 µM | CC50 [13, 43]: > 100 µM | TGI ([13]; read-out: pTGI (converted)): 47.9 µM | growth at 100 µM [14]: -68% | growth at 100 µM [15]: -91% | growth at 100 µM [16]: -83% | growth at 100 µM [17]: -64% | growth at 100 µM [18]: -64% | growth at 100 µM [19]: -61% | growth at 100 µM [20]: -36% | growth at 100 µM [21]: -19% | growth at 100 µM [22]: -52% | growth at 1 µM [23]: 93% | growth at 1 µM [24]: 89% | growth at 1 µM [25]: 58% | growth at 1 µM [26]: 72% | growth at 1 µM [27]: 96% | growth at 1 µM [28]: 78% | growth at 1 µM [29]: 78% | growth at 0.1 µM [30]: 103% | growth at 0.1 µM [31]: 96% | growth at 0.1 µM [32]: 80% | growth at 0.1 µM [33]: 95% | growth at 0.1 µM [34]: 87% | growth at 0.01 µM [35]: 92% | growth at 0.01 µM [36]: 97% | growth at 0.01 µM [37]: 96% | growth at 0.01 µM [38]: 97% | growth at 0.01 µM [39]: 97% | growth at 0.01 µM [40]: 101% | growth at 0.01 µM [41]: 95%

From ChEMBL document CHEMBL2413072, “Synthesis and in vitro anticancer studies of novel C-2 arylidene congeners of lantadenes” (2013)
